Read-outs that look alike come from different tables or passages of the source. Marks after values point to notes of the source that are not given here.
Legend:
[1] = system: Uninfected A301 cells; experiment: Cytotoxicity in uninfected A301 (Alex) cells; type: cell-based
Method: (§1) A301 (Alex) cells are pre-infected with a constant amount of HIV (LAV Strain) for three hours at 37° C. Test compounds and AZT (control) are added to the infected cells in two, three or five-fold dilutions, out four places for screening and eight places for confirmation. Unless mentioned the highest concentration is […]. The test plates are incubated in C02 at 37` C for up to twelve days (incubation time depends on virus pool titer) with a partial medium/sample change midpoint through the incubation period. Uninfected A301 cells with sample dilutions, but without virus, are used to evaluate cytotoxicity.

[2] = Cytotoxicity in uninfected A301 (Alex) cells; type: cell-based; conditions: human, read-out: Cell Toxicity Partial
Method: as §1

[3] = system: HIV (LAV Strain); experiment: Antiviral activity in HIV-infected A301 (Alex) cells, reverse transcriptase level readout; type: cell-based; conditions: Human immunodeficiency virus 1
Method: This procedure is a modification of a procedure initially described by Chen et al., Biochemical Pharmacology. 36 (24), 4361-4362 (1987).
as §1
Reverse transcriptase levels are assayed at the end of the incubation period as follows, to determine if antiviral activity is present.
[…] of medium from the HIV infected Alex cells is added to 10 mL of 3.2% Triton X-100. This solution is incubated for 30 minutes at 37° C, then 25 mL of 4X assay mix is added to it. The 4X assay mix contains [^3H]TTP, poly(A).oligo(dT), potassium chloride, magnesium chloride, dithiothreitol, and Tris-HCI buffer, pH8.0. […] The radioactivity remaining on the 3MM paper is quantitated by scintillation counter, and corresponds to reverse transcriptase level.

[4] = system: Granulocyte-Macrophage Colonies (CFU-GM); experiment: CFU-GM assay (myeloid precursors), human hematopoietic cell toxicity; type: cell-based
From the text: (§2) This procedure is a modification of procedures initially described by Diainiak, et al., British Journal of Haematology, 69, 229-304 (1988), or as described by Sommadossi, et al., Agents and Chemotherapy, 31-(3), 452-454 (1987).
(§3) The effect of 4 -azidothymidine and AZT on the formation of erythroid and GM colonies from precursors in human peripheral blood and bone marrow were compared; from which the inhibition of 4 -azidothymidine and AZT against human hematopoietic cells were compared.
In each experiment peripheral blood or bone marrow from a single donor was used. Human peripheral blood mononuclear cells (PBL) were separated from heparinized blood of drug-free donors by density-gradient centrifugation in Ficoll (Pharmacia). Whole blood diluted 1:1 with Hanks' balanced salt solution (HBSS, Gibco) was layered on the top of Ficoll and centrifuged at 400 x g for 30 min. Cells were collected from the interphase and after washing, the concentration was adjusted to 2x10^6 cells/mL in RPMI-1640 medium with 25 mM Hepes buffer (Gibco). Monocytes were removed by adherence to plastic in large Petri dishes (150x15mm), adding 20 ml of the cell suspension/dish, and incubating for 1 hour at 37° C. Nonadherent mononuclear cells (MN) were removed by vigorous washing of the Petri dish with warm (37°C) HBSS.
Bone marrow aspirates from healthy donors were collected in heparizined syringes. The whole mononuclear cell fraction was separated by Ficoll-Paque density-gradient centrifugation (400 x g for 30 min). Cells collected from the interphase were washed 3 times in HBSS and resuspended in culture medium as described below for CFU-GM assay.
MN (1.5x10^6 cells/ml) and BM (1.x10^5 cells/ml) were cultured in complete medium as follows: Dulbecco's Modified Eagle Medium (DMEM, Gibco) supplemented with 20% heat-inactivated fetal calf serum (FCS, Hyclone), 2 mM L-glutamine, 5 x 10-^5 M 2-mercaptoethanol, penicillin (100 U/ml), streptomycin ([…]), and 0.3% bacto-agar (Difco). All supplements were from Gibco, unless otherwise specified. Cells were plated in 35x100 mm Lux Petri dishes (suspension dishes) in triplicate, and incubated at 37°C with 5% CO2 in air at 100% humidity. A supernatant from a T-cell line (GCT, Gibco), containing GM-Colony Stimlating Factor (GM-CSF), was used at a final concentration of 10% in complete medium. Tested compounds were added to the test dishes at concentrations of 10-^9 to 10-^4 M. Cells were incubated in air containing 5% CO2 (100% humidity) at 37°C for 14 days. Colonies were counted under a dissecting microscope. A CFU-GM colony was defined as a cluster of 50 or more cells consisting of granulocytes, monocyte-macrophages, or both.
All tests were performed in triplicate. The 50% inhibitory concentrations (ICso) for all types of colonies were determined using an RS 1 program on an IBM-PC.

[5] = system: Erythroid Colonies, CFU-E; experiment: CFU-E assay (late erythroid precursors), human hematopoietic cell toxicity; type: cell-based
From the text: as §2, §3
In each experiment peripheral blood or bone marrow from a single donor was used. […]
MN were cultured at a concentration of 3 x 10^5 cells/ml. The culture medium consisted of Iscove's Modified Eagle Medium (Gibco) supplemented with 30% heat-inactiviated FCS (Hyclone), penicillin ([…]), streptomycin ([…]), 2-mercaptoethanol (1 x 10^-4, 1% deionized bovine serum albumin (BSA, Sigma), DEAE-Dextran 40 mg/ml (Pharmacia), 0.8% methylcellulose (4000 Centipose, Fisher), and erythropoietin 2 U/ml (Connaught Laboratories). Cells were plated in 96-well plates ([…]) and incubated at 37^*C with 5% C02 in air (100% humidity) for 7-14 days. CFU-E colonies were counted on Days 7-8. Clusters of 8 or more hemoglobinized cells were considered as a colony. BFU-E colonies were counted on Day 14. Aggregates of 50 or more cells were counted as a colony. […]

[6] = system: Friend leukemia virus complex (FLVC); type: in vivo, Balb/c mice; conditions: daily dose 120 mg/kg i.p. for 9 days
Method: This procedure is a modification of a procedure initially described by Jones et al., Journal of Virology, 62 (2), 511-51,8 (1988), or by modifications thereof.
Friend leukemia virus complex (FLVC) was used. This retrovirus complex consists of both helper and defective virus particles.
Six week old female Balb/c mice from Bantin and Kingman, each weighing on the average of 18 gm, received 0.2ml of a solution (comprised of virus diluted in PBS containing 0.002 M EDTA) administered at 20 FFU/mouse, intravenously. Treatments began 4 hours after infection and continued for 9 days. AZT and 4'-azidothymidine were administered at 60 mg/kg/dose twice daily on Days 0, 4, and 5; and on Days 1-3 and 6-8 were administered 3 times daily at 40 mg/kg/dose. 2 3 -Dideoxycytidine was administered at 120 mg/kg/dose twice daily on days 0, 4, and 5; and on days 1-3 and 6-8 was administered 3 times daily at 80 mg/kg/dose. All treatments were given intraperitoneally, 0.5mi/dose. On day 9 after infection the spleens were removed, stained and fixed in Bouin's solution for 2 hours and then weighed. Foci were counted on spleens. A standard t-test was run to compare difference in spleen weights and difference in number of foci-forming units (FFU's) per spleen between groups.

[7] = system: HIV; conditions: background statement on prior art; cited from earlier work
[8] = background statement on prior art; cited from earlier work

**Q.** With `Cc1cn([C@H]2C[C@H](N=[N+]=[N-])[C@@H](CO)O2)c(=O)[nH]c1=O` [3'-azidothymidine, reference compound] as the compound, how does the “Cell Toxicity Complete” value [1] read?
**A.** 3300 µM

**Q.** And the MCC [2]?
**A.** 825 µM

**Q.** What about the EC50 [3] of the same compound?
**A.** 0.01 µM

**Q.** With `Cc1cn([C@H]2C[C@H](O)[C@](CO)(N=[N+]=[N-])O2)c(=O)[nH]c1=O` [4'-azidothymidine] as the compound, how does the “Cell Toxicity Complete” value [1] read?
**A.** 200 µM

**Q.** And the MCC [2]?
**A.** 8 µM

**Q.** What about the IC50 ([4]; bone marrow, experiment 1, listed as 2, read-out: IC50 BM 1) of the same compound?
**A.** 2.01 µM

**Q.** What about the IC50 ([4]; bone marrow, experiment 2, listed as 2, read-out: IC50 BM 2) of the same compound?
**A.** 0.9 µM

**Q.** What about the IC50 ([4]; peripheral blood mononuclear cells, five separate experiments, listed as 2, read-out: IC50 PBM Mean ±SE) of the same compound?
**A.** 4.83 ± 1.42 µM

**Q.** What about the EC50 ([3]; A301 (Alex) cells pre-infected with HIV (LAV Strain), reverse transcriptase levels at end of incubation, read-out: EC50) of the same compound?
**A.** 0.01 µM

**Q.** And the IC50 ([5]; BM (1 experiment))?
**A.** 27 µM

**Q.** And the “Inhibition of Splenomegaly” value [6]?
**A.** 75%

**Q.** And the FFU/Spleen ([6]; Day 9)?
**A.** ≥26 FFU/Spleen

**Q.** And the “Spleen Weight” value ([6]; weighed on Day 9 after infection)?
**A.** 0.190^d gm

**Q.** With `[N-]=[N+]=N[C@]1(CO)O[C@@H](n2ccc(N)nc2=O)[C@H](O)[C@@H]1O` [4 -azidocytidine] as the compound, how does the anti-HIV activity [7] read?
**A.** devoid of anti-HIV activity

**Q.** What about the cytotoxicity [8] of the same compound?
**A.** cytotoxic

**Q.** With `Cc1cn([C@H]2C[C@H](O)[C@](CO)(N=[N+]=[N-])O2)c(=O)[nH]c1=O` [Compound 1] as the compound, how does the IC50 ([4]; bone marrow, experiment 1, read-out: IC50 BM 1) read?
**A.** 21.1 µM

**Q.** What about the IC50 ([4]; bone marrow, experiment 2, read-out: IC50 BM 2) of the same compound?
**A.** 13.6 µM

**Q.** And the IC50 ([4]; peripheral blood mononuclear cells, five separate experiments, read-out: IC50 PBM Mean ±SE)?
**A.** 20.7 ± 1.73 µM

**Q.** What about the IC50 ([5]; PBM (3 experiments)) of the same compound?
**A.** > 100 µM

From patent publication EP0371366A1, “Antiviral agents” (priority 1988, dated 1990)
